Experimental data as given in patent US8722718B2, “Inhibitors of C-FMS kinase” (Janssen Pharmaceutica NV, priority 2006, dated 2014).

Columns and labels:
[1] = tested on: mouse bone-marrow derived macrophages (BMDM); assay: CSF-1-driven mouse bone-marrow derived macrophages proliferation assay (BrDU incorporation); assay type: cell-based; details: mCSF driven proliferation, read-out: mCSF driven proliferation BMDM (Mouse) IC-50
Protocol: CSF-1-Driven Mouse Bone-Marrow Derived Macrophages Assay
Macrophages are derived by culturing mouse bone marrow in alpha-MEM supplemented with 10% FCS and 50 ng/ml recombinant mouse CSF-1 in bacteriologic dishes. On the sixth day, macrophages are detached from dishes, washed, and resuspended to 0.05 million cells/ml in alpha-MEM containing 10% FCS. One hundred ul of cell suspension are distributed per well into 96 well culture plates. Wells are further supplemented with the addition of 50 ul media containing 15 ng/ml CSF-1, 3 uM Indomethacin, and 3× of a dilution series of test compounds. The cells are cultured for 30 hrs at 37 degrees and 5% CO2. During the final six hours, cultures are supplemented with an additional 30 ul of media containing a 1:500 dilution of bromodeoxyuridine (BrDU). At the end of the culture period, the plates are spun at 1000 RPM for 1 minute and 130 ul of media is removed with a pipet and replaced with 150 ul of fixative solution for 1 hour @ room temperature. The fixative is then dispelled from the plates and the plates allowed to air dry. Incorporation of BrDU into the fixed, dried cells is quantified using a specific ELISA.

c-fms = c-fms (Homo sapiens (Human), UniProt P07333); assay: c-fms autophosphorylation fluorescence polarization competition immunoassay (1 nM c-fms; peptide Pi assay); assay type: biochemical; details: read-out: 1 nM c-fms, peptide Pi assay IC-50
Protocol: Fluorescence Polarization Competition Immunoassay
The assay buffer used was 100 mM 4-(2-hydroxyethyl)piperazine 1-ethanesulfonic acid (HEPES), pH 7.5, 1 mM 1,4-dithio-DL-threitol (DTT), 0.01% (v/v) Tween-20. Compounds were diluted in assay buffer containing 4% dimethylsulfoxide (DMSO) just prior to the assay. […] The kinase reaction was initiated by adding 2 μL of 5 mM ATP (Sigma) in assay buffer. […] Control reactions were ran in each plate: in positive and negative control wells, assay buffer (made 4% in DMSO) was substituted for the compound; in addition, positive control wells received 1.2 μL of 50 mM ethylenediaminetetraaceticacid (EDTA).
The plates were incubated at room temperature for 45 min. At the end of the incubation, the reaction was quenched with 1.2 μL of 50 mM EDTA (EDTA was not added to the positive control wells at this point; see above). Following a 5-min incubation, each well received 10 μL of a 1:1:3 mixture of anti-phosphotyrosine antibody, 10×, PTK green tracer, 10× (vortexed), FP dilution buffer, respectively (all from PanVera, cat. #P2837). The plate was covered, incubated for 30 min at room temperature and the fluorescence polarization was read on the Analyst. The instrument settings were: 485 nm excitation filter; 530 nm emission filter; Z height: middle of well; G factor: 0.93. […] The reported IC50 values are averages of three independent measurements.

c-fms, sequence (P07333 20-972): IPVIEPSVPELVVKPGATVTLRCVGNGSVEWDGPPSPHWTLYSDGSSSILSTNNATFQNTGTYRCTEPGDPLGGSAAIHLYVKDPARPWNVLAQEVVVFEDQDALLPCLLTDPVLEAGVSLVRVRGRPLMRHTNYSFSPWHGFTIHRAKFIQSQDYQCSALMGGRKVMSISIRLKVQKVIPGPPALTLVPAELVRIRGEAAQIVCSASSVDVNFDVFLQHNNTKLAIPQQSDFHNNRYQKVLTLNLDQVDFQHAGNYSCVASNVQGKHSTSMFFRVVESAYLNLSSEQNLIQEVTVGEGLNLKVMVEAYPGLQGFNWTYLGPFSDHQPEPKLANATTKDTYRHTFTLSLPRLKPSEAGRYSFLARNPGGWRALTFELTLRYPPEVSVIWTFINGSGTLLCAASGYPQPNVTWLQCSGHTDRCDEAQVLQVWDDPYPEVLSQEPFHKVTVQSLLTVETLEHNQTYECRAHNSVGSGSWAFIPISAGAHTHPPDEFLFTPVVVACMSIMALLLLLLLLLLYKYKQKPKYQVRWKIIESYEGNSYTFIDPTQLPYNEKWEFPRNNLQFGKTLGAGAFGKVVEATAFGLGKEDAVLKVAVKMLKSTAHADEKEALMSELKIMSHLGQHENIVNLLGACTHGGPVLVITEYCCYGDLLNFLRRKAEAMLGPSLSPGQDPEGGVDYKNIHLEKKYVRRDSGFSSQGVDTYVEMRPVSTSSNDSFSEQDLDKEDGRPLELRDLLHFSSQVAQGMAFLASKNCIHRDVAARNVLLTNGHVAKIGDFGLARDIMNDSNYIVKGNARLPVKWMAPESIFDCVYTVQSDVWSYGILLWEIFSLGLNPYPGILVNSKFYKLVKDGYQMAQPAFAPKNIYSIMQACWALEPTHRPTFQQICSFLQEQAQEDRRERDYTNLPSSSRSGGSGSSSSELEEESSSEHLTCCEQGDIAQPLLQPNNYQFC

IC50 (c-fms) [nM]	SMILES	IC50 [1] [nM]
3.9	CC1(c2ccc(NC(=O)c3nc(C#N)c[nH]3)c(C3=CCCCC3)c2)OCCCO1 [Example 2, 4-Cyano-1H-imidazole-2-carboxylic acid [2-cyclohex-1-enyl-4-(2-methyl-[1,3]dioxan-2-yl)-phenyl]-amide]	44
3.4	CC1(c2ccc(NC(=O)c3ncc(C#N)[nH]3)c(C3=CCCCC3)c2)OCCO1 [Example 1, 5-Cyano-1H-imidazole-2-carboxylic acid [2-cyclohex-1-enyl-4-(2-methyl-[1,3]dioxolan-2-yl)-phenyl]-amide]	48
